Activity calls are given as the source filed them. Rule as the data show it, for most assays here: actives have a measured EC50 and inactives only a lower limit.
Experiments:
[1] = NIH-3T3 fibroblast cytotoxicity, dose response, cytotoxicity control, cell-based, fluorescence, Alamar Blue, secondary assay (AID 2327); assay type: functional;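 also: NIH-3T3 mouse fibroblasts cultured with fluconazole at 8 µg/mL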
[2] = C. albicans growth with fluconazole, confirmation, fluorescence, retest (AID 2467); assay type: functional, cell-based
[3] = target: T1, Serine/threonine-protein phosphatase (Candida dubliniensis (strain CD36 / CBS 7987 / NCPF 3949 / NRRLY-17841) (Yeast), UniProt B9W6M3); assay: calcineurin pathway inhibitors in yeast reporter, dose response, S. cerevisiae, CDRE-lacZ, luminescence, secondary (AID 2388); assay type: functional, cell-based;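 also: yeast reporter cells carrying a calcineurin-responsive lacZ construct stimulated with calcium chloride; luminescent beta-galactosidase reporter signal in whole cells rather than isolated phosphatase activity; potency for inhibition where a drop in reporter signal means calcineurin blockade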
T1 sequence (B9W6M3 whole entry): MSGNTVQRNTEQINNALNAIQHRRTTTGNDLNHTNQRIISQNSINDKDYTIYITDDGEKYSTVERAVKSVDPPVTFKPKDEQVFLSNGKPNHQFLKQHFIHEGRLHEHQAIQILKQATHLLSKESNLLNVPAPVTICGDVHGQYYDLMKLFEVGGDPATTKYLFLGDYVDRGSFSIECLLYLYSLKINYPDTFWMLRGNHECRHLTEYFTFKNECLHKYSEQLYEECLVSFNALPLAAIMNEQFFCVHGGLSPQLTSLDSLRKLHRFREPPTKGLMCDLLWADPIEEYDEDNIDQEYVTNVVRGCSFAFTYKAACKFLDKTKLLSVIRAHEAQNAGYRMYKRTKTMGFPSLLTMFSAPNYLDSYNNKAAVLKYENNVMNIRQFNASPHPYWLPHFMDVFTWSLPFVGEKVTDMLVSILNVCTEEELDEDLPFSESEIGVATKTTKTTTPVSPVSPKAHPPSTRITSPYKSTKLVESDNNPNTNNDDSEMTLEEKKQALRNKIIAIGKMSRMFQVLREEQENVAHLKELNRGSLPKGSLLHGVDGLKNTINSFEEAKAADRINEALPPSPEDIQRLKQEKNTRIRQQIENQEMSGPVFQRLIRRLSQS

[4] = target: ATP-dependent molecular chaperone HSP82 (Candida albicans (strain WO-1) (Yeast), UniProt C4YTQ8); assay: loss of DOC-induced GRE-beta-galactosidase reporter signal, dose response, Hsp90 inhibitor project, S. cerevisiae, luminescence (AID 2400); assay type: functional, cell-based;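 also: beta-galactosidase luminescence from glucocorticoid response element reporter as proxy for Hsp90 function; inhibitor potency where signal loss means Hsp90 inhibition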
[5] = target: T2, Replicative DNA helicase DnaB (Mycobacterium tuberculosis, UniProt P9WMR3); assay: DnaB intein splicing inhibitors, dose response, biochemical, cell-free fluorescence (AID 449749); assay type: functional
T2 sequence (P9WMR3 whole entry): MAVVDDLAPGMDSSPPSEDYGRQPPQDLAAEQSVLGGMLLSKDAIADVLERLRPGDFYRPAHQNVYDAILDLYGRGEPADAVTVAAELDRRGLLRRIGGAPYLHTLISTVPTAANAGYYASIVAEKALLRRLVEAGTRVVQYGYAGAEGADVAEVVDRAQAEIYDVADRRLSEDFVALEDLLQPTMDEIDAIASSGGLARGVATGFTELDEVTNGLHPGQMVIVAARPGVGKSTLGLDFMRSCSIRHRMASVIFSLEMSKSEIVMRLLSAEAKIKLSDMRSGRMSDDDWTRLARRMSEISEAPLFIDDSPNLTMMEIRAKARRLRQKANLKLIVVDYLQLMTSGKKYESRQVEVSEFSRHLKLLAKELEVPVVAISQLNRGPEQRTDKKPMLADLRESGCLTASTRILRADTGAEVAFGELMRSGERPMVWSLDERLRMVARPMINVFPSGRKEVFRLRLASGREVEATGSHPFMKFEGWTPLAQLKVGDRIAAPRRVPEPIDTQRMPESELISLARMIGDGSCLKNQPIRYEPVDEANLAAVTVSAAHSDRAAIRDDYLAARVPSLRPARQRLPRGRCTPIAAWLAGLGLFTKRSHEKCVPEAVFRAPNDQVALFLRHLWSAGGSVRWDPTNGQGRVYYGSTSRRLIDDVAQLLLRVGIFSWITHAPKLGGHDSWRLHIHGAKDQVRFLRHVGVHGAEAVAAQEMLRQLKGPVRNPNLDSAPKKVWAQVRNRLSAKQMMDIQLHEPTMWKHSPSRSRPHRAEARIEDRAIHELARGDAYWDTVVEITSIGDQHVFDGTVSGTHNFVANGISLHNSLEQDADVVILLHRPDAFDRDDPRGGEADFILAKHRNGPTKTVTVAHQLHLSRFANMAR

[6] = target: T3, Apoptotic protease-activating factor 1 (Homo sapiens, UniProt O14727); assay type: functional
T3 sequence (O14727 whole entry): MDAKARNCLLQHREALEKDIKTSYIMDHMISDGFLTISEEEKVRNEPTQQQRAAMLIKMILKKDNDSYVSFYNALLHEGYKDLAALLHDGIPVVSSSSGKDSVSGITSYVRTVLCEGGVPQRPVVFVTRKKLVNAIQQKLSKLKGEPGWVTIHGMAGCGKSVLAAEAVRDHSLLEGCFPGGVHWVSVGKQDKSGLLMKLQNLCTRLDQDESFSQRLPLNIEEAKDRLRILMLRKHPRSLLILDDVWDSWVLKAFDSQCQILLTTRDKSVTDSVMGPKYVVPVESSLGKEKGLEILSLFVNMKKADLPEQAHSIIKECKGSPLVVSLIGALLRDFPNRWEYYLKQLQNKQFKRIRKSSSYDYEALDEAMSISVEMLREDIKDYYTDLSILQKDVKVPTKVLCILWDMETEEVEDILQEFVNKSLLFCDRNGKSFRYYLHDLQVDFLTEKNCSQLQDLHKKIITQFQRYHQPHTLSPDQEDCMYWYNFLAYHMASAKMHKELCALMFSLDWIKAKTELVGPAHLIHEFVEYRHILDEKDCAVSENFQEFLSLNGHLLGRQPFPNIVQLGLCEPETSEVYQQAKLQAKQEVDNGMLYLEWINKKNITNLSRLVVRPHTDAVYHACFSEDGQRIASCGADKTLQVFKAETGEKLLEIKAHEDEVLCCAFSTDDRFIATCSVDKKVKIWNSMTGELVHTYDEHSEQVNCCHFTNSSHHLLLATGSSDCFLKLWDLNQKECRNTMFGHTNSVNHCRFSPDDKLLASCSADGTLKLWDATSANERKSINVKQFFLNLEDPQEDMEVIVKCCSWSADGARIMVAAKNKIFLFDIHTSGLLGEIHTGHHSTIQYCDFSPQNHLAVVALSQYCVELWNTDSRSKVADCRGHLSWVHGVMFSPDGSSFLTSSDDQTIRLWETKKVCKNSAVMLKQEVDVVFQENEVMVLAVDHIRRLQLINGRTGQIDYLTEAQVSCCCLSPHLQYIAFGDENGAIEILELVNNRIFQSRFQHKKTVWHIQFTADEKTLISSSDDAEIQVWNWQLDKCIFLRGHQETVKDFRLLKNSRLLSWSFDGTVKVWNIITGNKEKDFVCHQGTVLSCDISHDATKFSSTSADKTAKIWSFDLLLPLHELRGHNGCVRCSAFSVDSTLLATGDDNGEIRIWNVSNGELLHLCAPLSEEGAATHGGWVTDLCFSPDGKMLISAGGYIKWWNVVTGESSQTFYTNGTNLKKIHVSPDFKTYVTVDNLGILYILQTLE

[7] = target: T4, Protein RecA (Mycobacterium tuberculosis, UniProt P9WHJ3); assay: Fluorescence Cell-Free Homogeneous Dose Retest to Identify Inhibitors of RecA-Intein Splicing Activity. [Related pubchem assays (depositor defined):AID2097, AID2223, AID489010, AID492950]; assay type: functional
T4 sequence (P9WHJ3 whole entry): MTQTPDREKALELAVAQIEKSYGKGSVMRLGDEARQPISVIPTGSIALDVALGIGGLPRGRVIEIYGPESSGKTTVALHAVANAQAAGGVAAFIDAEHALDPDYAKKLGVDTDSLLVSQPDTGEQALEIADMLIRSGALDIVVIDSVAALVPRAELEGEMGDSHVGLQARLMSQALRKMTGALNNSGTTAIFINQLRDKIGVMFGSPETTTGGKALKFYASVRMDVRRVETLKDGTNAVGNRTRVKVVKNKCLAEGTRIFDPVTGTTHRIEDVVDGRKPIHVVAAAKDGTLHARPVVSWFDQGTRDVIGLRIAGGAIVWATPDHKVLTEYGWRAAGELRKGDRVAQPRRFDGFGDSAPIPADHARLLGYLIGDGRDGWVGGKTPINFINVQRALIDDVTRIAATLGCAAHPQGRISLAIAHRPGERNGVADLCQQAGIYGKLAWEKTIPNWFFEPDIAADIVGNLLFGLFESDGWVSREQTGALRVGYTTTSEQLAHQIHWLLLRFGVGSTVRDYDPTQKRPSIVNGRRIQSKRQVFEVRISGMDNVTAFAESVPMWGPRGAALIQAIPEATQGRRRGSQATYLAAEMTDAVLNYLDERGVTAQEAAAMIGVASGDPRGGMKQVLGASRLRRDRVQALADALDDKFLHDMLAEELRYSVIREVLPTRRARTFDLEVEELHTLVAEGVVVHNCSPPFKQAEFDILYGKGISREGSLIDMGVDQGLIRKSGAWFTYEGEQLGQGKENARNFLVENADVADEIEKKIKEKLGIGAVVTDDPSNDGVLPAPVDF

[8] = target: T5, Caspase-6 (Homo sapiens, UniProt P55212); assay: human caspase-6 inhibitors, dose response, biochemical, VEID-R110 fluorescence, cherry-pick (AID 720632)
T5 sequence (P55212 whole entry): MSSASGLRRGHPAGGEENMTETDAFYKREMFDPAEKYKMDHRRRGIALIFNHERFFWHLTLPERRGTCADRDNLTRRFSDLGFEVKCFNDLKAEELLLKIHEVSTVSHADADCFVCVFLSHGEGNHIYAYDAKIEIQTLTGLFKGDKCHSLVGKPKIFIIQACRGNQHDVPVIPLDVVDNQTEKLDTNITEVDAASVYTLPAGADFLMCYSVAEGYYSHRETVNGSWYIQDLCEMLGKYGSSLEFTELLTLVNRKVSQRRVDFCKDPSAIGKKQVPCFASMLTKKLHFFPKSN

[9] = target: T6, Tyrosyl-DNA phosphodiesterase 2 (Homo sapiens, UniProt O95551); assay: human TDP2 enzyme inhibitors, dose response, biochemical, epi absorbance, IC50 (AID 743297)
T6 sequence (O95551 whole entry): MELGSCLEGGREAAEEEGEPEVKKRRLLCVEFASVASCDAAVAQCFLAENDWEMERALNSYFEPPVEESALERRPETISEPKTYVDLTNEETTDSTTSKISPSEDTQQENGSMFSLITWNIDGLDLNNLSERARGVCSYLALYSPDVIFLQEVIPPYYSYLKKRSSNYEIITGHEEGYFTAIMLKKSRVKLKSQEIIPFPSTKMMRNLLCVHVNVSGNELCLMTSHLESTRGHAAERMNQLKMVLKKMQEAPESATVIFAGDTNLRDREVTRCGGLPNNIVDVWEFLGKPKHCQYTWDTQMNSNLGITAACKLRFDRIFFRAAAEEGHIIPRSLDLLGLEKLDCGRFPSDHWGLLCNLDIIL

[10] = tested on: Vero; assay: Vero cell cytotoxicity, cytotoxicity control for flavivirus capping enzyme inhibitors (AID 588742); assay type: functional; conditions: Chlorocebus sabaeus
[11] = target: Genome polyprotein (dengue virus type 2, UniProt P29990); assay: Dengue-2 NS5 methyltransferase inhibitors, primary screen, biochemical, confirmation dose response (AID 588689); assay type: functional
[12] = THP-1 cell cytotoxicity, dose response, cytotoxicity control for Vif-APOBEC3G degradation inhibitor project, THP-1 cells (AID 1117359); assay type: functional; conditions: Human immunodeficiency virus 1, THP-1
[13] = tested on: BJ; assay: cytotoxicity toward BJ-TERT fibroblasts, dose response, cell-based, RAS-independent, luminescence (AID 1933); assay type: functional; conditions: Homo sapiens
[14] = tested on: BJ; assay: cells; assay type: functional, cell-based; conditions: Homo sapiens
[15] = tested on: BJ; assay: cytotoxicity toward BJ-TERT-LT-ST fibroblasts, dose response, cell-based, RAS-independent, luminescence (AID 1935); assay type: functional; conditions: Homo sapiens;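 also: BJ fibroblasts immortalized with TERT plus LT and ST oncogenes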
[16] = cytotoxicity toward DRD oncogenic fibroblasts, dose response, cell-based, non-viral oncogenic, luminescence (AID 1934); assay type: functional; conditions: Homo sapiens
[17] = tested on: BJ; assay: cytotoxicity toward Ras-transformed BJeLR fibroblasts, dose response, cell-based, alamar blue fluorescence, cherrypicked samples (AID 2631); assay type: functional; conditions: Homo sapiens;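 also: confirmatory dose-response assay in RAS-dependent BJ fibroblasts engineered with TERT, LT and ST, with cytotoxicity read by fluorescence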

ATP-dependent molecular chaperone HSP82, sequence (C4YTQ8 whole entry): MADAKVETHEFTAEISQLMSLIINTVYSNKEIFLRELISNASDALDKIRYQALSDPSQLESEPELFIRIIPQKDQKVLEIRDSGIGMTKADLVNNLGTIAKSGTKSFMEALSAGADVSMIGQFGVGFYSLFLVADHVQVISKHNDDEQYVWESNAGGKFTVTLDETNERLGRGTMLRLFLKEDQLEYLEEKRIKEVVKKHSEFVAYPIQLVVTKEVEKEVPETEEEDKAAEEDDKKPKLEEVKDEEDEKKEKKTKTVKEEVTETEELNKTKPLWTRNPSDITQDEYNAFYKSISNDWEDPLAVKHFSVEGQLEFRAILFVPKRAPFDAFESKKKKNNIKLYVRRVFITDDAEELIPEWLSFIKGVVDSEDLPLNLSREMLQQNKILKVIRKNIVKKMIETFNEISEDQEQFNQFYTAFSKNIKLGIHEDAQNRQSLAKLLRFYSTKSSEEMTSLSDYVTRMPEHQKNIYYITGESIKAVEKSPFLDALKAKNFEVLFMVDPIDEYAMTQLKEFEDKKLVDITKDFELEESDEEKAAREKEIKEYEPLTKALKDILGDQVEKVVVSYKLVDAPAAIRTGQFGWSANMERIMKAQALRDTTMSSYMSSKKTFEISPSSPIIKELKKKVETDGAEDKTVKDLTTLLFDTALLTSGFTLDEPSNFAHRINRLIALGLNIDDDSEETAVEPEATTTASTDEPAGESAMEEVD
Genome polyprotein, sequence (P29990 2492-3391 limits assumed): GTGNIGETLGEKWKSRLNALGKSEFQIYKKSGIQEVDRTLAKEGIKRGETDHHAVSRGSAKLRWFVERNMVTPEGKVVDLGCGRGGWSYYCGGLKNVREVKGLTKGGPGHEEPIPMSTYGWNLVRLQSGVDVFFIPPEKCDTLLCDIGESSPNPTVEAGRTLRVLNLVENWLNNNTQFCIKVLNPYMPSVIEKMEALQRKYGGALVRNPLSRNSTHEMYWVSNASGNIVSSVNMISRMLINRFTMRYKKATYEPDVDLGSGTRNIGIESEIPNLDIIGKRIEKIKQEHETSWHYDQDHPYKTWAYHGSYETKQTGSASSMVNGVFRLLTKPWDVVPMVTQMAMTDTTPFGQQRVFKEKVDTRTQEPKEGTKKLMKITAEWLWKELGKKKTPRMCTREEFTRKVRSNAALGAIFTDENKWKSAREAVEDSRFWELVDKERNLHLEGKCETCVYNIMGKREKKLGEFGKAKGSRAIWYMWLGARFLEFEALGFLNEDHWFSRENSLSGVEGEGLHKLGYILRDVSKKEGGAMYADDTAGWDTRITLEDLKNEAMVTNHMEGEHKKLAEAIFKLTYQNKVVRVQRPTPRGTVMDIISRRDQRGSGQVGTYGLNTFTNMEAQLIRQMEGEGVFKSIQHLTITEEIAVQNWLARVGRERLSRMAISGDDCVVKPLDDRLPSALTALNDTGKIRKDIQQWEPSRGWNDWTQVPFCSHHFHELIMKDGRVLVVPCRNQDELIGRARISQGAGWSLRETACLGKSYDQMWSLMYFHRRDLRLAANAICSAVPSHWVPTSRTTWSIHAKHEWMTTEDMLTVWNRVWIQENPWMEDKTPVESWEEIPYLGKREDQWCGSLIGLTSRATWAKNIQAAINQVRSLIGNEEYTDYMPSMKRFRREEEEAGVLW

Compound	EC50 [1]	EC50 [2]	EC50 [3]	EC50 [4]	IC50 [6]	other results
CC1=C(CC[C@@H](C)CO)O[C@H]2C[C@H]3[C@@H]4CC[C@H]5C[C@@H](O)CC[C@]5(C)[C@H]4CC(=O)[C@]3(C)[C@@H]12	> 150 µM (inactive)	0.383 µM (active)	> 180 µM (inactive)	> 150 µM (inactive)		
COc1ccc(NC2=C(NCCO)C(=O)c3ccccc3C2=O)cc1					29.4 µM (active)	AC50 [5]: 31.4 µM (active); EC50 [7]: 21.9 µM (active); AC50 [8]: 6.05 µM (active); IC50 [9]: 88.7 µM (inactive)
CC(C)(C)c1ccc(Cc2nnc(S)nc2O)cc1	> 160 µM (inactive)	0.368 µM (active)	20.2 µM (active)	9.48 µM (active)		
O=C(/C(=N/N=C/c1ccc(O)c(O)c1O)c1ccccc1)c1ccccc1	> 150 µM (inactive)	4.04 µM (active)	> 180 µM (inactive)	5.97 µM (active)		CC50 [10]: 9.15 µM (active); IC50 [11]: 50.1 µM (active); CC50 [12]: 16.6 µM (active)
Cc1cccc(OCC(=O)Nc2ccc(C(=O)NCc3cccnc3)cc2)c1						EC50 [13]: > 150 µM (not active); EC50 [14]: 8.97 µM (inconclusive); EC50 [15]: > 150 µM (inconclusive); EC50 [16]: > 150 µM (not active); EC50 [17]: 17.3 µM (active)
Cc1nn2c(-c3ccncc3)nnc2c2ccccc12					5.15 µM (active)	

— ChEMBL document CHEMBL1201862, “PubChem BioAssay data set” (2004)
